Results taken from patent publication US7994185B2, “Benzene sulfonamide thiazole and oxazole compounds” (Glaxo Smith Kline LLC, priority 2008, dated 2011).
Where two headings read alike, the source gives them in different places.

Tests used:
[1] = molecular target: T1, BRAFV600E full-length (amino acids 2-766) (Homo sapiens, UniProt P15056, V600E); assay: B-Raf Accelerated MEK ATPase assay (BRAMA); type: biochemical
T1 construct: His6-tagged BRAFV600E full-length (amino acids 2-766); His6; made in house; host or cells: baculovirus expression system (insect cells)
T1 sequence (P15056 2-766 V600E): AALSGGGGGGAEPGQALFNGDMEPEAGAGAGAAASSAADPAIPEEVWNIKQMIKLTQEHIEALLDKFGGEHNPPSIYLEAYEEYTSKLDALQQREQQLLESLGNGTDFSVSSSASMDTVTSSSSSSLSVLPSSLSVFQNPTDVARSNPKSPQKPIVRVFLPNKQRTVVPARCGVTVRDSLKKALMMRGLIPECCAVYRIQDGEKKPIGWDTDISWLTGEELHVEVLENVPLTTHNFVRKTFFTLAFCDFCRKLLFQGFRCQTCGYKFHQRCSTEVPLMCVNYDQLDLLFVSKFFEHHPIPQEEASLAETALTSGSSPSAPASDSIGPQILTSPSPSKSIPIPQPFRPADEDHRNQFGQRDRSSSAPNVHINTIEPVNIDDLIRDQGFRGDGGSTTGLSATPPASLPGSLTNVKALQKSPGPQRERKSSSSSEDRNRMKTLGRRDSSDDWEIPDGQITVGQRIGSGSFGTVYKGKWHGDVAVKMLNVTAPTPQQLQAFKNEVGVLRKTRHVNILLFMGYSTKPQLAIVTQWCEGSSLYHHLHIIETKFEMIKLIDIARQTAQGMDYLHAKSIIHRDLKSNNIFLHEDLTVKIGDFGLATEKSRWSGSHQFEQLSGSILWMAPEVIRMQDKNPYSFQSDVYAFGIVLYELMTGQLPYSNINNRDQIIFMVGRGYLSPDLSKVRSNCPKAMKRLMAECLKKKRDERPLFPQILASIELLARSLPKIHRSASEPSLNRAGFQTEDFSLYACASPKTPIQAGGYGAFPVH
How it was run: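 Coupled-enzyme readout: ADP generated by MEK-mediated ATP hydrolysis, uncoupled from ERK phosphorylation, is linked to NADH oxidation through pyruvate kinase and lactate dehydrogenase.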

[2] = test system: Human colon tumor cells (Colo205); assay: Cell growth inhibition assay (CellTiter-Glo), Colo205; type: cell-based
How it was run: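 Colo205 (and SK-MEL-28) cells in RPMI with 10% FBS were exposed to 10-point 1:3 serial dilutions of compound at 0.2% final DMSO for 3 days at 37 °C. Total ATP, a surrogate for cell number, was read by CellTiter-Glo luminescence, with % growth inhibition relative to DMSO-treated wells.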

[3] = test system: Human melanoma cancer cells (SK-MEL-28); assay: Cell growth inhibition assay (CellTiter-Glo), SK-MEL-28; type: cell-based
[4] = B-Raf Activity, Table 1a, highest pIC50 for the one or more runs, categorized
[5] = B-Raf pIC50, Table 1b, later runs, average pIC50 for the one or more runs, categorized
[6] = COLO 205, 72 h, Table 2a, 3 days incubation, read-out: Activity in Colo205 Tumor Cells
[7] = COLO 205, Table 2b, later runs, average for the one or more runs, categorized, read-out: IC50 for Colo205
[8] = SK-MEL-28, 72 h, Table 3a, 3 days incubation, read-out: Activity in SK-MEL-28 Tumor Cells
[9] = SK-MEL-28, Table 3b, later runs, average for the one or more runs, categorized, read-out: IC50 for SK-MEL-28
[10] = Table 1b, later runs, average pIC50 for the one or more runs, categorized, read-out: B-Raf pIC50 (converted)

Row | SMILES | IC50 [1, 4] [µM] | IC50 [1, 5] [µM] | IC50 [2, 6] [µM] | IC50 [2, 7] [µM] | IC50 [3, 8] [µM] | IC50 [3, 9] [µM] | IC50 [1, 10] [µM] | IC50 [1] [µM]
1 | COc1ccc(F)cc1S(=O)(=O)Nc1cccc(-c2nc(C(C)C)sc2-c2ccnc(NCCS(C)(=O)=O)n2)c1 [Example 149] | < 0.1 | 0.0316 to 1 | 0.1 to 1 | 0.1 to 1 | 0.1 to 1 | 0.1 to 1 | – | –
2 | COc1ccc(F)cc1S(=O)(=O)Nc1cccc(-c2nc(C(C)C)sc2-c2ccnc(NC3CCN(S(C)(=O)=O)CC3)n2)c1 [Example 150] | 0.1 to 1 | 0.0316 to 1 | 0.1 to 1 | 0.1 to 1 | 0.1 to 1 | 0.1 to 1 | – | –
3 | CC(C)c1nc(-c2ccc(F)c(NS(=O)(=O)c3ccco3)c2)c(-c2ccnc(NC3CCN(S(C)(=O)=O)CC3)n2)s1 [Example 151] | < 0.1 | – | 0.1 to 1 | 0.1 to 1 | 0.1 to 1 | 0.1 to 1 | 0.00316 to 0.0316 | –
4 | COc1ccc(F)cc1S(=O)(=O)Nc1cccc(-c2nc(C(C)C)sc2-c2ccnc(NCC(C)C)n2)c1F [Example 152] | < 0.1 | – | < 0.1 | < 0.1 | < 0.1 | < 0.1 | 0.00316 to 0.0316 | –
5 | COc1ccc(F)cc1S(=O)(=O)Nc1cccc(-c2nc(C(C)C)sc2-c2ccnc(NC3CCN(S(C)(=O)=O)CC3)n2)c1F [Example 153] | < 0.1 | – | < 0.1 | < 0.1 | < 0.1 | < 0.1 | 0.00316 to 0.0316 | –
6 | CC(C)CNc1nccc(-c2sc(C(C)C)nc2-c2cccc(NS(=O)(=O)c3ccco3)c2F)n1 [Example 154] | < 0.1 | ≤ 0.00316 | 0.1 to 1 | 0.1 to 1 | 0.1 to 1 | 0.1 to 1 | – | –
7 | CC(C)CNc1nccc(-c2sc(C(C)C)nc2-c2cccc(NS(=O)(=O)c3cccnc3)c2)n1 [Example 155] | < 0.1 | ≤ 0.00316 | 0.1 to 1 | 0.1 to 1 | 0.1 to 1 | 0.1 to 1 | – | –
8 | CC(C)(C)c1nc(-c2c(F)ccc(NS(=O)(=O)c3cccc(F)c3)c2F)c(-c2ccnc(N)n2)s1 [Example 157] | < 0.1 | ≤ 0.00316 | < 0.1 | < 0.1 | < 0.1 | < 0.1 | – | –
9 | CC(C)Nc1nccc(-c2sc(C(C)C)nc2-c2cccc(NS(=O)(=O)c3cccc(F)c3)c2)n1 [Example 158] | < 0.1 | 0.0316 to 1 | > 1 | 1 to 10 | > 1 | 1 to 10 | – | –
10 | COCCNc1nccc(-c2sc(C(C)C)nc2-c2ccc(F)c(NS(=O)(=O)c3c(F)cccc3F)c2)n1 [Example 159] | 0.1 to 1 | 0.0316 to 1 | 0.1 to 1 | 0.1 to 1 | 0.1 to 1 | 0.1 to 1 | – | –
11 | CC(C)c1nc(-c2ccc(F)c(NS(=O)(=O)c3c(F)cccc3F)c2)c(-c2ccnc(NCCO)n2)s1 [Example 160] | 0.1 to 1 | 0.0316 to 1 | 0.1 to 1 | 0.1 to 1 | 0.1 to 1 | 0.1 to 1 | – | –
12 | CC(C)c1nc(-c2ccc(F)c(NS(=O)(=O)c3c(F)cccc3F)c2)c(-c2ccnc(NCCN(C)C)n2)s1 [Example 161] | 0.1 to 1 | 0.0316 to 1 | > 1 | 1 to 10 | > 1 | 1 to 10 | – | –
13 | COCC(C)Nc1nccc(-c2sc(C(C)C)nc2-c2ccc(F)c(NS(=O)(=O)c3c(F)cccc3F)c2)n1 (centres unmarked) [Example 162] | 0.1 to 1 | 0.0316 to 1 | 0.1 to 1 | 0.1 to 1 | 0.1 to 1 | 0.1 to 1 | – | –
14 | CC(C)c1nc(-c2ccc(F)c(NS(=O)(=O)c3c(F)cccc3F)c2)c(-c2ccnc(NCCCN(C)C)n2)s1 [Example 163] | – | – | > 1 | 1 to 10 | > 1 | – | – | > 1
15 | CC(C)c1nc(-c2ccc(F)c(NS(=O)(=O)c3c(F)cccc3F)c2)c(-c2ccnc(NCCN3CCCC3)n2)s1 [Example 164] | – | – | > 1 | 1 to 10 | > 1 | 1 to 10 | – | > 1
16 | CC(C)c1nc(-c2ccc(F)c(NS(=O)(=O)c3c(F)cccc3F)c2)c(-c2ccnc(NCCN3CCOCC3)n2)s1 [Example 165] | – | 0.0316 to 1 | 0.1 to 1 | 0.1 to 1 | 0.1 to 1 | 0.1 to 1 | – | –
17 | CC(C)c1nc(-c2ccc(F)c(NS(=O)(=O)c3c(F)cccc3F)c2)c(-c2ccnc(NCCOCCO)n2)s1 [Example 166] | – | 0.0316 to 1 | 0.1 to 1 | 0.1 to 1 | 0.1 to 1 | 0.1 to 1 | – | –

Row | SMILES | IC50 [1, 4] [µM] | IC50 [1, 5] [µM] | IC50 [2, 6] [µM] | IC50 [2, 7] [µM] | IC50 [3, 8] [µM] | IC50 [3, 9] [µM] | IC50 [1, 10] [µM] | IC50 [1] [µM]
18 | CC(C)c1nc(-c2ccc(F)c(NS(=O)(=O)c3c(F)cccc3F)c2)c(-c2ccnc(NCCCCN(C)C)n2)s1 [Example 167] | – | 0.0316 to 1 | 0.1 to 1 | 0.1 to 1 | > 1 | 1 to 10 | – | –
19 | COCCCNc1nccc(-c2sc(C(C)C)nc2-c2ccc(F)c(NS(=O)(=O)c3c(F)cccc3F)c2)n1 [Example 168] | – | 0.0316 to 1 | 0.1 to 1 | 0.1 to 1 | 0.1 to 1 | 0.1 to 1 | – | –
20 | CC(C)c1nc(-c2ccc(F)c(NS(=O)(=O)c3c(F)cccc3F)c2)c(-c2ccnc(NCCN3CCS(=O)(=O)CC3)n2)s1 [Example 175] | < 0.1 | 0.0316 to 1 | 0.1 to 1 | 0.1 to 1 | 0.1 to 1 | 0.1 to 1 | – | –
21 | CC(C)CNc1nccc(-c2sc(C(C)C)nc2-c2cccc(NS(=O)(=O)c3c(F)cccc3F)c2F)n1 [Example 176] | < 0.1 | ≤ 0.00316 | < 0.1 | < 0.1 | < 0.1 | < 0.1 | – | –
22 | CC(C)(C)c1nc(-c2cccc(NS(=O)(=O)c3cc(F)ccc3F)c2F)c(-c2ccnc(NCC(F)F)n2)s1 [Example 177] | < 0.1 | ≤ 0.00316 | < 0.1 | 1 to 10 | < 0.1 | 1 to 10 | – | –
23 | CC(C)c1nc(-c2ccc(F)c(NS(=O)(=O)c3c(F)cccc3F)c2)c(-c2ccnc(NCCF)n2)s1 [Example 178] | < 0.1 | 0.0316 to 1 | 0.1 to 1 | 0.1 to 1 | 0.1 to 1 | 0.1 to 1 | – | –
24 | CC(C)(C)c1nc(-c2cccc(NS(=O)(=O)c3cc(F)ccc3F)c2F)c(-c2ccnc(NCCF)n2)s1 [Example 179] | < 0.1 | ≤ 0.00316 | < 0.1 | < 0.1 | < 0.1 | < 0.1 | – | –
25 | CC(C)c1nc(-c2ccc(F)c(NS(=O)(=O)c3c(F)cccc3F)c2)c(-c2ccnc(NCCC(F)(F)F)n2)s1 [Example 180] | < 0.1 | – | 0.1 to 1 | 0.1 to 1 | 0.1 to 1 | 0.1 to 1 | 0.00316 to 0.0316 | –
26 | CC(C)CNc1nccc(-c2sc(N3CCOCC3)nc2-c2cccc(NS(=O)(=O)c3cc(F)ccc3F)c2F)n1 [Example 182] | < 0.1 | ≤ 0.00316 | < 0.1 | < 0.1 | < 0.1 | < 0.1 | – | –
27 | CC(=O)NCCNc1nccc(-c2sc(C(C)C)nc2-c2ccc(F)c(NS(=O)(=O)c3c(F)cccc3F)c2)n1 [Example 183] | < 0.1 | 0.0316 to 1 | > 1 | 1 to 10 | > 1 | 1 to 10 | – | –
28 | CC(C)c1nc(-c2ccc(F)c(NS(=O)(=O)c3cc(F)ccc3F)c2)c(-c2ccnc(NCCCN3CCCC3=O)n2)s1 [Example 184] | < 0.1 | – | < 0.1 | < 0.1 | < 0.1 | < 0.1 | 0.00316 to 0.0316 | –
29 | CC(C)c1nc(-c2cccc(NS(=O)(=O)c3cc(F)ccc3F)c2F)c(-c2ccnc(NCCCN3CCCC3=O)n2)s1 [Example 185] | < 0.1 | ≤ 0.00316 | < 0.1 | < 0.1 | < 0.1 | < 0.1 | – | –
30 | CC(=O)NCCNc1nccc(-c2sc(C(C)C)nc2-c2ccc(F)c(NS(=O)(=O)c3cc(F)ccc3F)c2)n1 [Example 186] | < 0.1 | – | 0.1 to 1 | 0.1 to 1 | 0.1 to 1 | 0.1 to 1 | 0.00316 to 0.0316 | –
31 | CC(=O)NCCNc1nccc(-c2sc(C(C)C)nc2-c2cccc(NS(=O)(=O)c3cc(F)ccc3F)c2F)n1 [Example 187] | < 0.1 | ≤ 0.00316 | < 0.1 | 1 to 10 | < 0.1 | < 0.1 | – | –
32 | O=C1CCCN1CCCNc1nccc(-c2sc(N3CCOCC3)nc2-c2cccc(NS(=O)(=O)c3cc(F)ccc3F)c2F)n1 [Example 188] | < 0.1 | ≤ 0.00316 | < 0.1 | < 0.1 | < 0.1 | < 0.1 | – | –
33 | CC(C)c1nc(-c2cccc(NS(=O)(=O)c3cc(F)ccc3F)c2F)c(-c2ccnc(NCCNC(=O)OC(C)(C)C)n2)s1 [Example 189] | < 0.1 | ≤ 0.00316 | < 0.1 | < 0.1 | < 0.1 | < 0.1 | – | –
